Laboratory results taken from patent US20260250318A1, “COMPOSITIONS AND METHODS FOR CROSSING THE BLOOD BRAIN BARRIER” (VOYAGER THERAPEUTICS, INC., priority 2022, published 2026).

How the values were obtained:
brain [1] = experiment: Matured TTM-001 and TTM-002 variants, NGS enrichment in mouse brain; format: in vivo, mice; conditions: relative to AAV9 control
[2] = system: brains, heart, liver, muscle, and DRG of the NHPs; experiment: Maturation of TTM-001 and TTM-002 capsids, NGS enrichment in NHP tissues; format: in vivo; conditions: relative to AAV9 control
In short: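 Variants carry mutations within and flanking the loop IV peptide insert: positions 450–466 were triplet-randomized, while positions 449–466 received low-frequency point mutations. The combined pool went into two NHPs, and each peptide was scored by NGS enrichment ratio against AAV9.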

brain [3] = experiment: NGS fold enrichment of synthetic library (passage 3) in BALB/c mice, first cross-species screen; format: in vivo; conditions: synthetic library passage 3, intravenous, relative to wild-type AAV9
In short: (§1)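 Synthetic capsid library (passage 3) was given intravenously […] to NHPs aged 2-4 years and to BALB/c and C57Bl/6 mice (n=3 each, 6-8 weeks). After about 28 days in vivo, tissue RNA was RT-PCR amplified and NGS-sequenced; values are fold enrichment per variant relative to wild-type AAV9.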

brain [4] = experiment: NGS fold enrichment of synthetic library (passage 3) in C57Bl/6 mice, first cross-species screen; format: in vivo; conditions: synthetic library passage 3, intravenous, relative to wild-type AAV9
In short: as §1

[5] = system: brain, spinal cord, and DRG of the NHPs; experiment: NGS fold enrichment of synthetic library (passage 3) in NHPs, first cross-species screen; format: in vivo, cynomolgus macaques (Macaca fascicularis); conditions: synthetic library passage 3, intravenous, relative to wild-type AAV9
In short: as §1

[6] = NGS fold-enrichment, brain of mice
[7] = NGS fold-enrichment, DRG of NHPs
[8] = NGS fold-enrichment, RNA, brain of NHPs
[9] = NGS fold-enrichment, heart of NHPs
[10] = NGS fold-enrichment, liver DNA of NHPs
[11] = NGS fold-enrichment, liver RNA of NHPs
[12] = NGS fold-enrichment, muscle of NHPs
[13] = RNA from brain of BALB/c mice, NGS
[14] = RNA from brain of C57Bl/6 mice, NGS
[15] = RNA from spinal cord of NHPs, NGS

Sequence: EAINGSGSPHSKAQNQQT
- Fold Enrichment relative to AAV9, Brain (Mouse) (brain [1]; mouse brain): 117.305 fold
- Fold Enrichment relative to AAV9, Brain (NHP) ([2]; NGS fold-enrichment of matured AAV capsid variants, NHP brain, RNA): 50.243 fold
- Fold Enrichment relative to AAV9, DRG (NHP) ([2]; NHP DRG): 0.629 fold
- Fold Enrichment relative to AAV9, Heart (NHP) ([2]; NHP heart): 0.094 fold
- Fold Enrichment relative to AAV9, Liver DNA (NHP) ([2]; NHP liver, DNA): 1.519 fold
- Fold Enrichment relative to AAV9, Liver RNA (NHP) ([2]; NHP liver, RNA): 0.057 fold
- Fold Enrichment relative to AAV9, Muscle (NHP) ([2]; NHP muscle): 0.000 fold

Sequence: ETIKGSGSPHSKAQNQQT
- Fold Enrichment relative to AAV9, Brain (Mouse) (brain [1]; [6]): 67.201 fold
- Fold Enrichment relative to AAV9, DRG (NHP) [2, 7]: 0.000 fold
- Fold Enrichment relative to AAV9, Brain (NHP) [2, 8]: 64.609 fold
- Fold Enrichment relative to AAV9, Heart (NHP) [2, 9]: 0.000 fold
- Fold Enrichment relative to AAV9, Liver DNA (NHP) [2, 10]: 0.024 fold
- Fold Enrichment relative to AAV9, Liver RNA (NHP) [2, 11]: 0.000 fold
- Fold Enrichment relative to AAV9, Muscle (NHP) [2, 12]: 0.144 fold

Sequence: ETINGSGSPHSKAQNLQT
- Fold Enrichment relative to AAV9, Brain (Mouse) (brain [1]; [6]): 107.216 fold
- Fold Enrichment relative to AAV9, Brain (Mouse) (brain [1]; NGS fold-enrichment, mouse brain): 107.216 fold
- Fold Enrichment relative to AAV9, Brain (NHP) ([2]; NGS fold-enrichment of RNA, NHP brain): 90.969 fold
- Fold Enrichment relative to AAV9, DRG (NHP) [2, 7]: 0.221 fold
- Fold Enrichment relative to AAV9, DRG (NHP) ([2]; NGS fold-enrichment, NHP DRG): 0.221 fold
- Fold Enrichment relative to AAV9, Heart (NHP) ([2]; NGS fold-enrichment, NHP heart): 1.023 fold
- Fold Enrichment relative to AAV9, Liver DNA (NHP) ([2]; NGS fold-enrichment, NHP liver DNA): 0.813 fold
- Fold Enrichment relative to AAV9, Liver RNA (NHP) ([2]; NGS fold-enrichment, NHP liver RNA): 0.179 fold
- Fold Enrichment relative to AAV9, Muscle (NHP) ([2]; NGS fold-enrichment, NHP muscle): 0.197 fold
- Fold Enrichment relative to AAV9, Brain (NHP) [2, 8]: 90.969 fold
- Fold Enrichment relative to AAV9, Heart (NHP) [2, 9]: 1.023 fold
- Fold Enrichment relative to AAV9, Liver DNA (NHP) [2, 10]: 0.813 fold
- Fold Enrichment relative to AAV9, Liver RNA (NHP) [2, 11]: 0.179 fold
- Fold Enrichment relative to AAV9, Muscle (NHP) [2, 12]: 0.197 fold

Sequence: GTREMPLSGQNQQT
- Fold enrichment over AAV9 in the brain of Mice (BALB/c) (brain [3]; RNA NGS, brain of BALB/c mice): 0.538 fold
- Fold enrichment over AAV9 in the brain of Mice (C57Bl/6) (brain [4]; RNA NGS, brain of C57Bl/6 mice): 1.436 fold
- Fold enrichment over AAV9 in the brain of NHPs ([5]; RNA NGS, brain of NHPs): 2.339 fold
- Fold enrichment over AAV9 in the spinal cord of NHPs ([5]; RNA NGS, spinal cord of NHPs): 2.830 fold

Sequence: GTTAHQPSGQNQQT
- Fold enrichment over AAV9 in the brain of Mice (BALB/c) (brain [3]; [13]): 0.275 fold
- Fold enrichment over AAV9 in the brain of Mice (C57Bl/6) (brain [4]; [14]): 0.726 fold
- Fold enrichment over AAV9 in the brain of NHPs ([5]; RNA from brain of NHPs, NGS): 1.138 fold
- Fold enrichment over AAV9 in the spinal cord of NHPs [5, 15]: 0.211 fold

Sequence: GVAFIGSSGQNQQT
- Fold enrichment over AAV9 in the brain of Mice (BALB/c) (brain [3]; RNA NGS, brain of BALB/c mice): 0.648 fold
- Fold enrichment over AAV9 in the brain of Mice (C57Bl/6) (brain [4]; RNA NGS, brain of C57Bl/6 mice): 0.744 fold
- Fold enrichment over AAV9 in the brain of NHPs ([5]; RNA NGS, brain of NHPs): 1.043 fold
- Fold enrichment over AAV9 in the spinal cord of NHPs ([5]; RNA NGS, spinal cord of NHPs): 0.000 fold

Sequence: GVAGSLVSGQNQQT
- Fold enrichment over AAV9 in the brain of Mice (BALB/c) (brain [3]; RNA NGS, brain of BALB/c mice): 1.160 fold
- Fold enrichment over AAV9 in the brain of Mice (C57Bl/6) (brain [4]; RNA NGS, brain of C57Bl/6 mice): 1.321 fold
- Fold enrichment over AAV9 in the brain of NHPs ([5]; RNA NGS, brain of NHPs): 2.358 fold
- Fold enrichment over AAV9 in the spinal cord of NHPs ([5]; RNA NGS, spinal cord of NHPs): 7.670 fold

Sequence: GVGVITSSGQNQQT
- Fold enrichment over AAV9 in the brain of Mice (BALB/c) (brain [3]; [13]): 0.777 fold
- Fold enrichment over AAV9 in the brain of Mice (C57Bl/6) (brain [4]; [14]): 1.296 fold
- Fold enrichment over AAV9 in the brain of NHPs ([5]; RNA from brain of NHPs, NGS): 1.348 fold
- Fold enrichment over AAV9 in the spinal cord of NHPs [5, 15]: 0.918 fold

Sequence: GVHDMRVSGQNQQT
- Fold enrichment over AAV9 in the brain of Mice (BALB/c) (brain [3]; RNA NGS, brain of BALB/c mice): 0.818 fold
- Fold enrichment over AAV9 in the brain of Mice (C57Bl/6) (brain [4]; RNA NGS, brain of C57Bl/6 mice): 1.171 fold
- Fold enrichment over AAV9 in the brain of NHPs ([5]; RNA NGS, brain of NHPs): 1.032 fold
- Fold enrichment over AAV9 in the spinal cord of NHPs ([5]; RNA NGS, spinal cord of NHPs): 8.083 fold

Sequence: GVHSLTPSGQNQQT
- Fold enrichment over AAV9 in the brain of Mice (BALB/c) (brain [3]; RNA NGS, brain of BALB/c mice): 0.215 fold
- Fold enrichment over AAV9 in the brain of Mice (C57Bl/6) (brain [4]; RNA NGS, brain of C57Bl/6 mice): 0.475 fold
- Fold enrichment over AAV9 in the brain of NHPs ([5]; RNA NGS, brain of NHPs): 1.687 fold
- Fold enrichment over AAV9 in the spinal cord of NHPs ([5]; RNA NGS, spinal cord of NHPs): 4.104 fold

Sequence: GVHTHLPSGQNQQT
- Fold enrichment over AAV9 in the brain of Mice (BALB/c) (brain [3]; RNA NGS, brain of BALB/c mice): 0.796 fold
- Fold enrichment over AAV9 in the brain of Mice (C57Bl/6) (brain [4]; RNA NGS, brain of C57Bl/6 mice): 1.414 fold
- Fold enrichment over AAV9 in the brain of NHPs ([5]; RNA NGS, brain of NHPs): 1.952 fold
- Fold enrichment over AAV9 in the spinal cord of NHPs ([5]; RNA NGS, spinal cord of NHPs): 1.364 fold

Sequence: GVIVLHGSGQNQQT
- Fold enrichment over AAV9 in the brain of Mice (BALB/c) (brain [3]; RNA NGS, brain of BALB/c mice): 1.098 fold
- Fold enrichment over AAV9 in the brain of Mice (C57Bl/6) (brain [4]; RNA NGS, brain of C57Bl/6 mice): 1.074 fold
- Fold enrichment over AAV9 in the brain of NHPs ([5]; RNA NGS, brain of NHPs): 1.682 fold
- Fold enrichment over AAV9 in the spinal cord of NHPs ([5]; RNA NGS, spinal cord of NHPs): 14.166 fold

Sequence: GVKGVGHSGQNQQT
- Fold enrichment over AAV9 in the brain of Mice (BALB/c) (brain [3]; RNA NGS, brain of BALB/c mice): 0.783 fold
- Fold enrichment over AAV9 in the brain of Mice (C57Bl/6) (brain [4]; RNA NGS, brain of C57Bl/6 mice): 0.994 fold
- Fold enrichment over AAV9 in the brain of NHPs ([5]; RNA NGS, brain of NHPs): 1.096 fold
- Fold enrichment over AAV9 in the spinal cord of NHPs ([5]; RNA NGS, spinal cord of NHPs): 2.485 fold
